We go through 25 compounds from patent US7709471B2, “Compounds” (AstraZeneca AB, priority 2006, dated 2010).

In one test the target is recombinant Plk1 (Homo sapiens, UniProt P53350). The test can be described thus: In Vitro Plk1 Enzyme Assay (SPA, GST-Cdc25C phosphorylation). Particulars: ATP 64 nM, 90 minutes, read-out: IC50 (Plk1 enzyme inhibition). The format is biochemical.
For test [1], the system named is human colon tumour cell line HT29. The test can be described thus: Cellular Assay (phosphohistone H3 Ser10 mitotic marker, HT29). Particulars: HT-29, 24 h, HT29 cells. The format is cell-based.
Description: Chromosome condensation in mitosis is accompanied by phosphorylation of histone H3 on serine 10.
After 24 hours, cells were fixed in 3.7% (v/v) formaldehyde then permeabilised and blocked for 10 minutes in 100 μl 0.5% (v/v) Triton X-100, 1% (w/v) bovine serum albumin (BSA) in phosphate buffered saline (PBS). […] The raw assay data were analysed by non-linear regression analysis and used to determine an IC50 value for each compound.
Where [2] appears, read: read-out: IC50 (cellular assay, phosphohistone H3).

Molecules are shown by their SMILES. Read-outs that look alike come from different tables or passages of the source.

recombinant Plk1, sequence (P53350 whole entry): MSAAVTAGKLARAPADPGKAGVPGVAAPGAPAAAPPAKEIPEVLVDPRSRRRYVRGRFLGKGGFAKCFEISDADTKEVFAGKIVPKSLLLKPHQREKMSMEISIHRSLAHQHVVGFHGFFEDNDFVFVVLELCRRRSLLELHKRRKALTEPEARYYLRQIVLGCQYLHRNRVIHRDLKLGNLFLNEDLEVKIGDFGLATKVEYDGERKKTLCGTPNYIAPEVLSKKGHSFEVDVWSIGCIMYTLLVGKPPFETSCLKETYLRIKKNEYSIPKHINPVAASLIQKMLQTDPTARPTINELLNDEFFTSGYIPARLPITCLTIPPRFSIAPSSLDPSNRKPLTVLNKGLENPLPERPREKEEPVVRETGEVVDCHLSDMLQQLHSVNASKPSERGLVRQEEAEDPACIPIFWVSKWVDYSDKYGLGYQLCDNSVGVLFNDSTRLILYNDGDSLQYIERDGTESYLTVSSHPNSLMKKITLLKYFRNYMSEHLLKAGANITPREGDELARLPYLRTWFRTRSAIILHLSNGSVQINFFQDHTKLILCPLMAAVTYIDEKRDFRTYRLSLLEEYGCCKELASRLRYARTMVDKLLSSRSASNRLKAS
Description for recombinant Plk1: Reactions were stopped by addition of EDTA (110 mM) and the Cdc25C substrate captured via its GST tag to anti-GST antibody (Molecular Probes, Cat No A-5800) coated Protein A PVT SPA beads (Amersham Biosciences, Catalogue No. RPQ0019; 250 μg/well) in 50 mM HEPES pH7.5 buffer containing 0.05% (w/v) sodium azide and incubated for up to 2 hours, followed by the addition of 20 μl of 4M caesium chloride (final assay concentration of 1M). Plates were then left in the dark overnight before counting on a Packard TopCount NXT.
Radiolabelled phosphorylated substrate is formed in situ as a result of Plk1 mediated phosphorylation. The SPA beads contain a scintillant that can be stimulated to emit light. This stimulation only occurs when a radiolabelled phosphorylated substrate is bound to the surface of the coated SPA bead causing the emission of blue light that can be measured on a scintillation counter. Accordingly, the extent of Plk1 mediated Cdc25C phosphorylation was assessed. The raw assay data were then analysed by non-linear regression analysis and Plk1 enzyme inhibition for a given test compound is expressed as an IC50 value.

As to `CC(=O)N1CCc2cc(Nc3ncc4c(n3)N(C3CCCC3)CCC(=O)N4C)ccc21` [Example 124, 9-[(1-acetyl-2,3-dihydroindol-5-yl)amino]-6-cyclopentyl-2-methyl-2,6,8,10-tetrazabicyclo[5.4.0]undeca-8,10,12-trien-3-one], the IC50 on recombinant Plk1 is less than 1000 nM; in test [1] (setting [2]), less than 30000 nM.

In the case of `Cc1cc(C(=O)NC2CCN(C)CC2)ccc1Nc1ncc2c(n1)N(C1CCCC1)CCC(=O)N2C` [Example 193, 4-[(6-cyclopentyl-2-methyl-3-oxo-2,6,8,10-tetrazabicyclo[5.4.0]undeca-8,10,12-trien-9-yl)amino]-3-methyl-N-(1-methyl-4-piperidyl)benzamide], the half-inhibitory concentration (IC50) (on recombinant Plk1; in test [1] (setting [2])) was less than 300 nM throughout.

Turning to `COc1cc(NCCN(C)C)ccc1Nc1ncc2c(n1)N(C1CCCC1)CCC(=O)N2C` [Example 107, 6-cyclopentyl-9-[[4-(2-dimethylaminoethylamino)-2-methoxy-phenyl]amino]-2-methyl-2,6,8,10-tetrazabicyclo[5.4.0]undeca-8,10,12-trien-3-one], the IC50 at recombinant Plk1 was less than 1000 nM; in test [1] (setting [2]), less than 30000 nM.

Turning to `COc1cc(C(=O)NC2CCN(C3CC3)CC2)ccc1Nc1ncc2c(n1)N(C1CCCC1)CCC(=O)N2C` [Example 11, 4-[(6-cyclopentyl-2-methyl-3-oxo-2,6,8,10-tetrazabicyclo[5.4.0]undeca-8,10,12-trien-9-yl)amino]-N-(1-cyclopropyl-4-piperidyl)-3-methoxy-benzamide], the IC50 (on recombinant Plk1; in test [1] (setting [2])) was less than 300 nM each time.

Take `COc1cc(C(=O)NCCCN2CCCCCC2)ccc1Nc1ncc2c(n1)N(C1CCCC1)CCC(=O)N2C` [Example 70, N-[3-(azepan-1-yl)propyl]-4-[(6-cyclopentyl-2-methyl-3-oxo-2,6,8,10-tetrazabicyclo[5.4.0]undeca-8,10,12-trien-9-yl)amino]-3-methoxy-benzamide]: the half-maximal inhibitory concentration (IC50) at recombinant Plk1 was less than 1000 nM; in test [1] (setting [2]), less than 300 nM.

Consider `COc1cc(C(=O)NCCCCN(C)C)ccc1Nc1ncc2c(n1)N(C1CCCC1)CCC(=O)N2C` [Example 21, 4-[(6-cyclopentyl-2-methyl-3-oxo-2,6,8,10-tetrazabicyclo[5.4.0]undeca-8,10,12-trien-9-yl)amino]-N-(4-dimethylaminobutyl)-3-methoxy-benzamide], for which the IC50 (on recombinant Plk1; in test [1] (setting [2])) was less than 300 nM throughout.

For the compound `COc1cc(C(=O)NCCN(C)C)ccc1Nc1ncc2c(n1)N(C1CCCC1)CCC(=O)N2C` [Example 14, 4-[(6-cyclopentyl-2-methyl-3-oxo-2,6,8,10-tetrazabicyclo[5.4.0]undeca-8,10,12-trien-9-yl)amino]-N-(2-dimethylaminoethyl)-3-methoxy-benzamide], the IC50 at recombinant Plk1 was less than 300 nM; in test [1] (read-out: Cell IC50) it was 92 nM; in test [1] (setting [2]), less than 300 nM.

For `CN(C)CCCNC(=O)c1ccc(Nc2ncc3c(n2)N(C2CCCC2)CCC(=O)N3C)c(Cl)c1` [Example 317, 3-chloro-4-[(2-cyclopentyl-6-methyl-5-oxo-2,6,9,11-tetrazabicyclo[5.4.0]undeca-7,9,11-trien-10-yl)amino]-N-(3-dimethylaminopropyl)benzamide], the IC50 (on recombinant Plk1; in test [1] (setting [2])) was less than 300 nM in each case.

Consider `CC(=O)Nc1cccc(Nc2ncc3c(n2)N(C2CCCC2)CCC(=O)N3C)c1` [Example 177, N-[3-[(6-cyclopentyl-2-methyl-3-oxo-2,6,8,10-tetrazabicyclo[5.4.0]undeca-8,10,12-trien-9-yl)amino]phenyl]acetamide], for which the IC50 at recombinant Plk1 is less than 100000 nM; in test [1] (setting [2]) it was less than 30000 nM.

Turning to `COc1cc(C(=O)NC2CCC2)ccc1Nc1ncc2c(n1)N(C1CCCC1)CCC(=O)N2C` [Example 98, N-cyclobutyl-4-[(6-cyclopentyl-2-methyl-3-oxo-2,6,8,10-tetrazabicyclo[5.4.0]undeca-8,10,12-trien-9-yl)amino]-3-methoxy-benzamide], the results for the IC50 (at recombinant Plk1; in test [1] (setting [2])) were less than 1000 nM and less than 300 nM, respectively.

As for `COc1cc(OC2CCN(C)CC2)ccc1Nc1ncc2c(n1)N(C1CCCC1)CCC(=O)N2C` [Example 113, 6-cyclopentyl-9-[[2-methoxy-4-[(1-methyl-4-piperidyl)oxy]phenyl]amino]-2-methyl-2,6,8,10-tetrazabicyclo[5.4.0]undeca-8,10,12-trien-3-one], the IC50 (on recombinant Plk1; in test [1] (setting [2])) was less than 1000 nM in each case.

Take `CN1CCC(NC(=O)c2ccc(Nc3ncc4c(n3)N(C3CCCC3)CCC(=O)N4C)cc2F)CC1` [Example 189, 4-[(6-cyclopentyl-2-methyl-3-oxo-2,6,8,10-tetrazabicyclo[5.4.0]undeca-8,10,12-trien-9-yl)amino]-2-fluoro-N-(1-methyl-4-piperidyl)benzamide]: the IC50 (on recombinant Plk1; in test [1] (setting [2])) was less than 300 nM throughout.

As to `COc1ccc(NC(C)=O)cc1Nc1ncc2c(n1)N(C1CCCC1)CCC(=O)N2C` [Example 176, N-[3-[(6-cyclopentyl-2-methyl-3-oxo-2,6,8,10-tetrazabicyclo[5.4.0]undeca-8,10,12-trien-9-yl)amino]-4-methoxy-phenyl]acetamide], the figures for the IC50 (on recombinant Plk1; in test [1] (setting [2])) were less than 300 nM and less than 1000 nM, respectively.

With `COc1cc(OCCN2CCOCC2)ccc1Nc1ncc2c(n1)N(C1CCCC1)CCC(=O)N2C` [Example 115, 6-cyclopentyl-9-[[2-methoxy-4-(2-morpholin-4-ylethoxy)phenyl]amino]-2-methyl-2,6,8,10-tetrazabicyclo[5.4.0]undeca-8,10,12-trien-3-one], the IC50 on recombinant Plk1 was less than 1000 nM; in test [1] (setting [2]), less than 30000 nM.

Consider `CCOc1cc(C(=O)NC2CCN(C)CC2)ccc1Nc1ncc2c(n1)N(C(C)C)CCC(=O)N2C` [Example 281, 3-ethoxy-4-[(6-methyl-5-oxo-2-propan-2-yl-2,6,9,11-tetrazabicyclo[5.4.0]undeca-7,9,11-trien-10-yl)amino]-N-(1-methyl-4-piperidyl)benzamide], for which the figures for the IC50 (at recombinant Plk1; in test [1] (setting [2])) were less than 300 nM and less than 1000 nM, respectively.

On to `COc1cc(C(=O)N[C@H]2[C@@H]3CNC[C@@H]32)ccc1Nc1ncc2c(n1)N(C1CCCC1)CCC(=O)N2C` [Example 57, N-[(1S,5R)-3-azabicyclo[3.1.0]hex-6-yl]-4-[(6-cyclopentyl-2-methyl-3-oxo-2,6,8,10-tetrazabicyclo[5.4.0]undeca-8,10,12-trien-9-yl)amino]-3-methoxy-benzamide], for which the IC50 (on recombinant Plk1; in test [1] (setting [2])) was less than 300 nM each time.

Turning to `COc1cc(C(=O)NC2CCN(C(C)C)CC2)ccc1Nc1ncc2c(n1)N(C1CCCC1)CCC(=O)N2C` [Example 49, 4-[(6-cyclopentyl-2-methyl-3-oxo-2,6,8,10-tetrazabicyclo[5.4.0]undeca-8,10,12-trien-9-yl)amino]-3-methoxy-N-(1-propan-2-yl-4-piperidyl)benzamide], the IC50 (at recombinant Plk1; in test [1] (setting [2])) was less than 300 nM each time.

As to `CN1CCC(NC(=O)c2ccc(Nc3ncc4c(n3)N(C3CCCC3)CCC(=O)N4C)c(Cl)c2)CC1` [Example 185, 3-chloro-4-[(6-cyclopentyl-2-methyl-3-oxo-2,6,8,10-tetrazabicyclo[5.4.0]undeca-8,10,12-trien-9-yl)amino]-N-(1-methyl-4-piperidyl)benzamide], the IC50 (at recombinant Plk1; in test [1] (setting [2])) was less than 300 nM each time.

Turning to `COc1cc(C(=O)NCCN2CCOCC2)ccc1Nc1ncc2c(n1)N(C(C)C)CCC(=O)N2C` [Example 219, 3-methoxy-4-[(2-methyl-3-oxo-6-propan-2-yl-2,6,8,10-tetrazabicyclo[5.4.0]undeca-7,9,11-trien-9-yl)amino]-N-(2-morpholin-4-ylethyl)benzamide], the IC50 at recombinant Plk1 was less than 300 nM; in test [1] (setting [2]) it was less than 1000 nM.

For the compound `COc1cc(N(C)C2CCN(C)CC2)ccc1Nc1ncc2c(n1)N(C1CCCC1)CCC(=O)N2C` [Example 104, 6-cyclopentyl-9-[[2-methoxy-4-[methyl-(1-methyl-4-piperidyl)amino]phenyl]amino]-2-methyl-2,6,8,10-tetrazabicyclo[5.4.0]undeca-8,10,12-trien-3-one], the IC50 was less than 300 nM on recombinant Plk1 and less than 1000 nM in test [1] (setting [2]).

Turning to `COc1ccc(CCNC(C)=O)cc1Nc1ncc2c(n1)N(C1CCCC1)CCC(=O)N2C` [Example 138, N-[2-[3-[(6-cyclopentyl-2-methyl-3-oxo-2,6,8,10-tetrazabicyclo[5.4.0]undeca-8,10,12-trien-9-yl)amino]-4-methoxy-phenyl]ethyl]acetamide], the IC50 at recombinant Plk1 was less than 1000 nM; in test [1] (setting [2]), less than 30000 nM.

`COCC(C)N1CCC(=O)N(C)c2cnc(Nc3ccc(C(=O)NC4CCN(C)CC4)cc3OC)nc21` (stereo not drawn) [Example 230, 3-methoxy-4-[[6-(1-methoxypropan-2-yl)-2-methyl-3-oxo-2,6,8,10-tetrazabicyclo[5.4.0]undeca-7,9,11-trien-9-yl]amino]-N-(1-methyl-4-piperidyl)benzamide]: the figures for the IC50 (on recombinant Plk1; in test [1] (setting [2])) were less than 1000 nM and less than 30000 nM, respectively.

With `CN1CCC(NC(=O)c2cc(Cl)c(Nc3ncc4c(n3)N(C3CCCC3)CCC(=O)N4C)cc2F)CC1` [Example 322, 5-chloro-4-[(2-cyclopentyl-6-methyl-5-oxo-2,6,9,11-tetrazabicyclo[5.4.0]undeca-7,9,11-trien-10-yl)amino]-2-fluoro-N-(1-methyl-4-piperidyl)benzamide], the IC50 (on recombinant Plk1; in test [1] (setting [2])) was less than 300 nM throughout.

As for `COc1cc(C(=O)NC2CCN(C)CC2)ccc1Nc1ncc2c(n1)N(C1CCCCC1)CC1(CC1)C(=O)N2C` [Example 430, 4-(9′-cyclohexyl-5′-methyl-6′-oxo-5′,6′,8′,9′-tetrahydrospiro[cyclopropane-1,7′-pyrimido[5,4-b][1,4]diazepine]-2′-ylamino)-3-methoxy-N-(1-methyl-4-piperidyl)benzamide], the IC50 (on recombinant Plk1; in test [1] (setting [2])) was less than 300 nM each time.

Take `COc1cc(C(=O)NCCCCN2CCCC2)ccc1Nc1ncc2c(n1)N(C1CCCC1)CCC(=O)N2C` [Example 33, 4-[(6-cyclopentyl-2-methyl-3-oxo-2,6,8,10-tetrazabicyclo[5.4.0]undeca-8,10,12-trien-9-yl)amino]-3-methoxy-N-(4-pyrrolidin-1-ylbutyl)benzamide]: the IC50 (on recombinant Plk1; in test [1] (setting [2])) was less than 300 nM throughout.

As usually defined, the IC50 is the concentration at which inhibition is half-maximal.
